Experimental findings from US10231996B2, “Biocampatible polymer coated silver Prussian blue nanoparticles (SPB-NPs: Ag3[Fe(CN) 6])” (COUNCIL OF SCIENTIFIC & INDUSTRIAL RESEARCH, priority 2015, dated 2019) are described below.

Structures are written as SMILES.

Data set [1] concerns B16F10 aggressive murine melanoma tumor. As to the kind of experiment: In vivo B16F10 melanoma tumor model in C57BL6/J mice. The settings on record: free Dox 2.5 mg/kg, after four IP injections, compared to SPB(1,1)NPs treated mice. The method, then: In vivo tumor model was carried out using male C57BL6/J mice (8-9 weeks old). Approximately, 2.5×10^5 B16F10 cells resuspended in 100 μL of sterile HBSS were subcutaneously injected to lower right abdomen of male mice. […] All the treatments were Intraperitoneally (IP) injected on alternate days over a period of 15 days. The volume of tumor was measured by using the formula (0.5×ab^2), where ‘a’ represents the longest dimension and ‘b’ represents the shortest dimension of the tumors. Also, the weight and picture of the tumors were taken after the sacrifice. […] The loss of body weight can correlate with the nonspecific side effects of Dox in normal physiological function.

Data set [2] has as its system E. coli. As to the kind of experiment: Measurement of lipid peroxidation. It is filed as cell-based. The settings on record: positive control; (sample O.D/Control O.D)×100. The method, then: Lipid peroxidation was measured according to standard protocol. […] 1.5 ml of 20% acetic acid (pH 3.5), 1.5 ml of 0.8% thiobarbituric acid (in 1.1% SDS) and 0.05 ml of 20% TCA were added and mixed thoroughly. The tubes were then incubated for 60 minutes at 100° C. and 5 ml of butanol was added to each tube. The tubes were then centrifuged at 4000 rpm for 15 minutes. The pink supernatant was measures at 532 nm. The % of lipid peroxidation was measured by using the following formula: % of lipid peroxidation=(sample O.D/Control O.D)×100.

In data set [3] the test system is E. coli. As to the kind of experiment: Colony forming units (CFU), E. coli. Format: cell-based. To be noted: positive control 2 mg/ml, 24 hours. The method, then:
(§1) Streptomycin at 2 mg/ml concentration was used as positive control. The plated were incubated for 24 hours at 37° C. The number of colonies appeared on the surface of the LB agar plates were counted. […] We previously reported the antibacterial activity of biosynthesized silver nanoparticles (Mukherjee et al. Theranostics, 2014; 4: 316-335).

A further data set concerns Bacillus subtilis. As to the kind of experiment: Colony forming units (CFU), Bacillus subtilis. The settings on record: positive control 2 mg/ml, 24 hours. Format: cell-based. The procedure:
as §1

On to `COc1cccc2c1C(=O)c1c(O)c3c(c(O)c1C2=O)C[C@@](O)(C(=O)CO)C[C@@H]3O[C@H]1C[C@H](N)[C@H](O)[C@H](C)O1` [Dox, doxorubicin], for which the body weight entry in data set [1] is “significant loss of bodyweight”.
Regarding `[H]/N=C(/N)N[C@H]1[C@H](O)[C@@H](O)[C@H](O[C@@H]2O[C@@H](C)[C@](O)(C=O)[C@H]2O[C@@H]2O[C@@H](CO)[C@H](O)[C@@H](O)[C@@H]2NC)[C@@H](N/C(N)=N\[H])[C@@H]1O` [streptomycin], the lipid peroxidation in the data set on E. coli [2] was determined as 60%. The “bacterial growth (colonies)” value in the data set with E. coli [3] and with Bacillus subtilis was “bacterial colonies were observed” throughout.
